{"source": "ChEMBL document CHEMBL4406843", "about": "“β-Amino acid derivatives as mitochondrial complex III inhibitors of L. donovani: A promising chemotype targeting visceral leishmaniasis” (Eur J Med Chem, 2019)", "key": {"Leishmania donovani [1]": {"system": "Leishmania donovani", "assay": "(§1) Antileishmanial activity against Leishmania donovani promastigotes infected in BALB/c mouse assessed as reduction in parasite burden in liver at 25 mg/kg, ip administered for 7 days starting at 15 days post-infection and measured after 1 week post last dose Giemsa staining-based assay relative to control", "assay_type": "functional"}, "[2]": {"assay": "Stability in mouse plasma at 10 ug/ml measured after 2 hrs by UPLC analysis relative to control", "assay_type": "ADME, cell-free", "conditions": "read-out: Stability"}, "[3]": {"assay": "Cytotoxicity against African green monkey Vero cells assessed as cell viability at 100 uM by MTT assay relative to control", "assay_type": "cell-based", "conditions": "chlorocebus sabaeus, read-out: Activity"}, "Leishmania donovani [4]": {"system": "Leishmania donovani", "assay": "Induction of apoptosis in Leishmania donovani promastigotes assessed as late apoptotic cells at 50 uM after 24 hrs by Annexin-V/propidium iodide staining based flow cytometric method (reference value: 0.59%)", "assay_type": "functional"}, "Leishmania donovani [5]": {"system": "Leishmania donovani", "assay": "Induction of ROS generation in Leishmania donovani promastigotes at 50 uM after 3 hrs by H2DCFDA probe based flow cytometry (reference value: 1.97%)", "assay_type": "functional"}, "Leishmania donovani [6]": {"system": "Leishmania donovani", "assay": "(§2) Antileishmanial activity against Leishmania donovani amastigotes infected in golden hamster assessed as reduction in parasite burden in spleen at 50 mg/kg, ip administered on alternative days for 4 weeks starting at 4 weeks post-infection and measured after 2 week post last dose Giemsa staining-based assay relative to control", "assay_type": "functional"}, "Leishmania donovani [7]": {"system": "Leishmania donovani", "assay": "Induction of mitochondrial dysfunction in Leishmania donovani promastigotes assessed as reduction in mitochondrial membrane potential at 50 uM after 6 hrs by JC-1 staining-based flow cytometric analysis (reference value: 7.73%)", "assay_type": "functional", "set-up": "scale not given: the % may be the effect or the level left"}, "[8]": {"assay": "Toxicity in golden hamster infected with Leishmania donovani amastigotes assessed as effect on survival at 12.5 to 200 mg/kg, ip administered on alternative days for 4 weeks starting at 4 weeks post-infection", "assay_type": "organism-based, Mesocricetus auratus", "conditions": "in vivo, 672 h"}, "[9]": {"assay": "Selectivity index, ratio of CC50 for African green monkey Vero cells to IC50 for antileishmanial activity against Leishmania donovani MHOM/IN/80/Dd8 amastigotes harboring luciferase reporter gene", "assay_type": "toxicity", "conditions": "read-out: Ratio CC50/IC50"}, "Leishmania donovani [10]": {"system": "Leishmania donovani", "assay": "Antileishmanial activity against Leishmania donovani MHOM/IN/80/Dd8 amastigotes harboring luciferase reporter gene infected in mouse J774 cells at 25 uM after 72 hrs by Steady-Glo luminescence assay relative to control", "assay_type": "functional", "conditions": "MHOM/IN/80/Dd8, J774, 72 h"}, "[11]": {"assay": "Clearance in BALB/c mouse at 50 mg/kg, ip by HPLC analysis", "assay_type": "ADME, organism-based", "conditions": "in vivo"}, "Leishmania donovani [12]": {"system": "Leishmania donovani", "assay": "Induction of apoptosis in Leishmania donovani promastigotes assessed as early apoptotic cells at 50 uM after 48 hrs by Annexin-V/propidium iodide staining based flow cytometric method (reference value: 5.79%)", "assay_type": "functional"}, "Leishmania donovani [13]": {"system": "Leishmania donovani", "assay": "as §1, with “spleen” for “liver”", "assay_type": "functional"}, "[14]": {"assay": "Cmax in BALB/c mouse at 50 mg/kg, ip by HPLC analysis", "assay_type": "ADME, organism-based", "set-up": "dose 50 mg/kg, route intraperitoneal", "conditions": "in vivo"}, "J774 [15]": {"system": "J774", "assay": "Immunostimulatory activity in mouse J774 cells infected with Leishmania donovani promastigotes assessed as reduction in IL-10 cytokine production at 50 uM after 48 hrs by ELISA", "assay_type": "functional, cell-based"}, "Leishmania donovani [16]": {"system": "Leishmania donovani", "assay": "Inhibition of […] in Leishmania donovani promastigotes mitochondria at 8.1 to 50 uM using decylubiquinol as substrate in presence of cytochrome c"}, "Leishmania donovani [17]": {"system": "Leishmania donovani", "assay": "Antileishmanial activity against Leishmania donovani MHOM/IN/80/Dd8 promastigotes harboring luciferase reporter gene assessed as reduction in parasite viability after 48 hrs by MTT assay", "assay_type": "functional, organism-based", "conditions": "MHOM/IN/80/Dd8, 48 h"}, "[18]": {"assay": "Toxicity in golden hamster infected with Leishmania donovani amastigotes assessed as reduction in serum AST level at 50 mg/kg , ip and measured after 10 weeks post infection (reference value: 113 U/L)", "assay_type": "organism-based, Mesocricetus auratus", "conditions": "in vivo, 1680 h"}, "J774 [19]": {"system": "J774", "assay": "Immunostimulatory activity in mouse J774 cells infected with Leishmania donovani promastigotes assessed as reduction in TGF-beta cytokine production at 50 uM after 48 hrs by ELISA", "assay_type": "functional, cell-based"}, "[20]": {"assay": "Half life in mouse liver microsomes after 1 hr in presence of NADPH by UPLC analysis", "assay_type": "ADME, Microsome"}, "[21]": {"assay": "Toxicity in BALB/c mouse infected with Leishmania donovani promastigotes assessed as effect on body weight at 12.5 to 200 mg/kg, ip administered for 7 days starting at 15 days post-infection", "assay_type": "organism-based", "conditions": "in vivo"}, "Leishmania donovani [22]": {"system": "Leishmania donovani", "assay": "as §2, with “liver” for “spleen”", "assay_type": "functional"}, "[23]": {"assay": "Stability in simulated intestinal fluid at 10 ug/ml measured after 2 hrs by UPLC analysis relative to control", "assay_type": "ADME", "conditions": "read-out: Stability"}, "[24]": {"assay": "AUC(0 to infinity) in BALB/c mouse at 50 mg/kg, ip by HPLC analysis", "assay_type": "ADME, organism-based", "set-up": "dose 50 mg/kg, route intraperitoneal, time infinity", "conditions": "in vivo"}, "Leishmania donovani [25]": {"system": "Leishmania donovani", "assay": "Antileishmanial activity against promastigote stage of Leishmania donovani MHOM/IN/80/Dd8 harboring luciferase reporter gene at 100 uM after 48 hrs by Steady-Glo luminescence assay relative to control", "assay_type": "functional", "conditions": "MHOM/IN/80/Dd8, 48 h"}, "[26]": {"assay": "Toxicity in BALB/c mouse infected with Leishmania donovani promastigotes assessed as serum ALT level at 50 mg/kg , ip measured after 3 to 7 weeks (rvb = 31 IU/L)", "assay_type": "organism-based", "conditions": "in vivo"}, "[27]": {"assay": "Cytotoxicity against BALB/c mouse splenocytes assessed as cell viability at 100 uM after 72 hrs by MTT assay relative to control", "assay_type": "cell-based, Splenocyte", "conditions": "read-out: Activity"}, "Leishmania donovani [28]": {"system": "Leishmania donovani", "assay": "as §1, with “inhibition” for “reduction”, “spleen” for “liver”, “50” for “25”", "assay_type": "functional"}, "Leishmania donovani [29]": {"system": "Leishmania donovani", "assay": "as §1, with “inhibition” for “reduction”, “200” for “25”", "assay_type": "functional"}, "Leishmania donovani [30]": {"system": "Leishmania donovani", "assay": "Induction of plasma membrane permeabilization in Leishmania donovani promastigotes assessed as increase in fluorescence at 50 uM after 2 hrs by SYTOX green-based flow cytometry analysis relative to control", "assay_type": "functional"}, "Leishmania donovani [31]": {"system": "Leishmania donovani", "assay": "Inhibition of ubiquinol cytochrome c reductase in Leishmania donovani promastigotes mitochondria at 8.1 to 50 uM using decylubiquinol as substrate in presence of cytochrome c"}, "Leishmania donovani [32]": {"system": "Leishmania donovani", "assay": "Induction of apoptosis in Leishmania donovani promastigotes assessed as early apoptotic cells at 50 uM after 24 hrs by Annexin-V/propidium iodide staining based flow cytometric method (reference value: 5.79%)", "assay_type": "functional"}, "[33]": {"assay": "Toxicity in BALB/c mouse infected with Leishmania donovani promastigotes assessed as survival at 12.5 to 200 mg/kg, ip administered for 7 days starting at 15 days post-infection", "assay_type": "organism-based", "conditions": "in vivo"}, "Leishmania donovani [34]": {"system": "Leishmania donovani", "assay": "Antileishmanial activity against Leishmania donovani MHOM/IN/80/Dd8 amastigotes harboring luciferase reporter gene infected in mouse J774 cells at 50 uM after 72 hrs by Steady-Glo luminescence assay relative to control", "assay_type": "functional", "conditions": "MHOM/IN/80/Dd8, J774, 72 h"}, "J774 [35]": {"system": "J774", "assay": "Immunostimulatory activity in mouse J774 cells infected with Leishmania donovani promastigotes assessed as increase in TNF-alpha cytokine production at 50 uM after 48 hrs by ELISA", "assay_type": "functional, cell-based"}, "Leishmania donovani [36]": {"system": "Leishmania donovani", "assay": "Induction of mitochondrial membrane depolarization in Leishmania donovani promastigotes assessed as disruption of cristae at 50 uM after 24 hrs by TEM analysis", "assay_type": "functional, organism-based"}, "Leishmania donovani [37]": {"system": "Leishmania donovani", "assay": "Induction of apoptosis in Leishmania donovani promastigotes assessed as necrotic cells at 50 uM after 48 hrs by Annexin-V/propidium iodide staining based flow cytometric method (reference value: 0.06%)", "assay_type": "functional"}}, "note": "Calls of active or inactive are those of the source. The calls are words filed in the database; no cut-off is given here."}
{"compound": "CCOC(=O)C(C(=O)c1ccc(OC)cc1)C(NC(C)=O)c1cccc2ccccc12", "note": "(configuration not stated)", "values": [{"measurement": "inhibition in vivo at 25 mg/kg", "setting": "Leishmania donovani [1]", "result": 67.6, "unit": "%"}, {"measurement": "remaining at 2 h, 10 ug/ml", "setting": "[2]", "result": 81, "unit": "%"}, {"measurement": "viability at 100 µM", "setting": "[3]", "result": 95.5, "unit": "%"}, {"measurement": "Activity", "setting": "Leishmania donovani [4]", "result": 0.8, "unit": "%"}, {"measurement": "Activity", "setting": "Leishmania donovani [5]", "result": 7.49, "unit": "%"}, {"measurement": "inhibition in vivo at 50 mg/kg", "setting": "Leishmania donovani [6]", "result": 90.4, "unit": "%"}, {"measurement": "Activity", "setting": "Leishmania donovani [7]", "result": 19.52, "unit": "%"}, {"measurement": "Activity", "setting": "[8]", "result": "Non-Toxic"}, {"measurement": "selectivity ratio", "setting": "[9]", "result": 25.7}, {"measurement": "inhibition at 25 µM", "setting": "Leishmania donovani [10]", "result": 64.1, "unit": "%"}, {"measurement": "CL/F", "setting": "[11]", "result": 664, "unit": "mL/min/kg"}, {"measurement": "Activity", "setting": "Leishmania donovani [12]", "result": 17.8, "unit": "%"}, {"measurement": "inhibition in vivo at 25 mg/kg", "setting": "Leishmania donovani [13]", "result": 68.5, "unit": "%"}, {"measurement": "Cmax", "setting": "[14]", "result": 2080, "unit": "ng/mL"}, {"measurement": "Activity", "setting": "J774 [15]", "result": "inactive"}, {"measurement": "inhibition", "setting": "Leishmania donovani [16]", "result": "inactive"}, {"measurement": "IC50", "setting": "Leishmania donovani [17]", "result": 9.1, "unit": "µM"}, {"measurement": "Activity", "setting": "[18]", "result": 92, "unit": "IU/L"}, {"measurement": "Activity", "setting": "J774 [19]", "result": "inactive"}, {"measurement": "half-life", "setting": "[20]", "result": 5.22, "unit": "h"}, {"measurement": "Activity", "setting": "[21]", "result": "Non-Toxic"}, {"measurement": "inhibition in vivo at 50 mg/kg", "setting": "Leishmania donovani [22]", "result": 88.2, "unit": "%"}, {"measurement": "remaining at 2 h, 10 ug/ml", "setting": "[23]", "result": 80.2, "unit": "%"}, {"measurement": "AUC(0-inf)", "setting": "[24]", "result": 1280, "unit": "ng·h/mL"}, {"measurement": "inhibition at 100 µM", "setting": "Leishmania donovani [25]", "result": 97.1, "unit": "%"}, {"measurement": "Activity", "setting": "[26]", "result": "17 to 177", "unit": "IU/L"}, {"measurement": "viability at 72 h, 100 µM", "setting": "[27]", "result": "> 90.2", "unit": "%"}, {"measurement": "inhibition in vivo at 50 mg/kg", "setting": "Leishmania donovani [28]", "result": 92.5, "unit": "%"}, {"measurement": "inhibition in vivo at 200 mg/kg", "setting": "Leishmania donovani [29]", "result": 92.1, "unit": "%"}, {"measurement": "Activity", "setting": "Leishmania donovani [30]", "result": 3.1, "unit": "%"}, {"measurement": "inhibition", "setting": "Leishmania donovani [31]", "result": "Active"}, {"measurement": "Activity", "setting": "Leishmania donovani [32]", "result": 8.56, "unit": "%"}, {"measurement": "Activity", "setting": "[33]", "result": "Non-Toxic"}, {"measurement": "inhibition at 50 µM", "setting": "Leishmania donovani [34]", "result": 93.5, "unit": "%"}, {"measurement": "Activity", "setting": "J774 [35]", "result": "inactive"}, {"measurement": "Activity", "setting": "Leishmania donovani [36]", "result": "Active"}, {"measurement": "Activity", "setting": "Leishmania donovani [37]", "result": 0.11, "unit": "%"}]}
